Source: ChEMBL document CHEMBL5465560, “Selectivity Literature for EUbOPEN Chemogenomic Library” (2024)
Blank lines part the entries; values can stand above or below the molecule they belong to.

How the values were obtained:
[1] = molecular target: Tyrosine-protein kinase ABL2 (Homo sapiens, UniProt P42684); conditions: at 10 µM
[2] = molecular target: Calcium/calmodulin-dependent protein kinase type 1 (Homo sapiens) (UniProt Q14012); assay: Selectivity interaction (Ambit KINOMEscan and KiNATiv profiling in Jurkat cells) EUB0000090b CAMK1; format: cell-based; conditions: at 1 µM
[3] = molecular target: T1, Cytoplasmic tyrosine-protein kinase BMX (Homo sapiens) (UniProt P51813); assay: Selectivity interaction (Kinase panel (DSF assay)) EUB0001559a BMX
T1 sequence (whole entry): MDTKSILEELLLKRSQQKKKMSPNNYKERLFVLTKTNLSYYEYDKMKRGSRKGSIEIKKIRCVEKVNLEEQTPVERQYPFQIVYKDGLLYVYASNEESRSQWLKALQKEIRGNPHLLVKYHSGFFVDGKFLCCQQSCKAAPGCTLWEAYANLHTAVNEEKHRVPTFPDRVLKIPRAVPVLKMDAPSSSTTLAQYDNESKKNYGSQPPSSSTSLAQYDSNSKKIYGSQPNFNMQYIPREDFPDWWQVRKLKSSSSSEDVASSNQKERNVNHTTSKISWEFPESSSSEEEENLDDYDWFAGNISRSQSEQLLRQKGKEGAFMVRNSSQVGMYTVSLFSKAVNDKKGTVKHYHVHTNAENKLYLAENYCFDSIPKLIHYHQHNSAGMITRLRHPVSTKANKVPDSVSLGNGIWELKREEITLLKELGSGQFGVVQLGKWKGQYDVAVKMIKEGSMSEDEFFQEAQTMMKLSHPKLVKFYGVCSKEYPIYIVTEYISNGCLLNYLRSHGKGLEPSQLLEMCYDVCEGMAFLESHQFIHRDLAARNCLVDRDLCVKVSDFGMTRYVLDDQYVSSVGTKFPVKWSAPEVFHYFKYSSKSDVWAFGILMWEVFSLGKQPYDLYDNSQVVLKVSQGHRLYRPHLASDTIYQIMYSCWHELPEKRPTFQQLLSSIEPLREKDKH

[4] = molecular target: Cyclin-dependent kinase-like 3 (Homo sapiens) (UniProt Q8IVW4); assay: Selectivity interaction (KinomeScan (DiscoverX)) EUB0000655a CDKL3; conditions: at 10 µM
[5] = molecular target: Microtubule-associated serine/threonine-protein kinase 1 (Homo sapiens) (UniProt Q9Y2H9); assay: Selectivity interaction (KinomeScan (DiscoverX)) EUB0001079a MAST1; conditions: at 1 µM
[6] = molecular target: Serine/threonine-protein kinase PLK3 (Homo sapiens, UniProt Q9H4B4); assay: Selectivity interaction (KinomeScan (DiscoverX)) EUB0000618a PLK3; conditions: at 10 µM
[7] = molecular target: Casein kinase I isoform epsilon (Homo sapiens, UniProt P49674); assay: Selectivity interaction (KinomeScan (DiscoverX)) EUB0000045b CSNK1E
[8] = molecular target: Cyclin-dependent kinase 7 (Homo sapiens, UniProt P50613); assay: Selectivity interaction (KinomeScan (DiscoverX)) EUB0000045b CDK7
[9] = molecular target: Serine/threonine-protein kinase PAK 6 (Homo sapiens) (UniProt Q9NQU5); assay: Selectivity interaction (KinomeScan (DiscoverX)) EUB0000595a PAK6; conditions: at 10 µM
[10] = molecular target: Tyrosine-protein kinase BTK (Homo sapiens, UniProt Q06187); assay: Selectivity interaction (ActivX KiNativ screen (kinase selectivity in THP-1 cell lysates)) EUB0000639a BTK; format: subcellular; conditions: lysate
[11] = molecular target: Mitogen-activated protein kinase kinase kinase kinase 4 (Homo sapiens, UniProt O95819); assay: Selectivity interaction (ProQinase) EUB0000171b MAP4K4
[12] = molecular target: Non-receptor tyrosine-protein kinase TYK2 (Homo sapiens, UniProt P29597); assay: Selectivity interaction (Kinase panel (Carna Biosciences)) EUB0001542aTs TYK2; conditions: at 1 µM
[13] = molecular target: T2, Serine/threonine-protein kinase DCLK2 (Homo sapiens) (UniProt Q8N568); assay: Selectivity interaction (Kinase panel (Z-LYTE Assay)) EUB0001632a DCLK2; conditions: at 10 µM
T2 sequence (whole entry): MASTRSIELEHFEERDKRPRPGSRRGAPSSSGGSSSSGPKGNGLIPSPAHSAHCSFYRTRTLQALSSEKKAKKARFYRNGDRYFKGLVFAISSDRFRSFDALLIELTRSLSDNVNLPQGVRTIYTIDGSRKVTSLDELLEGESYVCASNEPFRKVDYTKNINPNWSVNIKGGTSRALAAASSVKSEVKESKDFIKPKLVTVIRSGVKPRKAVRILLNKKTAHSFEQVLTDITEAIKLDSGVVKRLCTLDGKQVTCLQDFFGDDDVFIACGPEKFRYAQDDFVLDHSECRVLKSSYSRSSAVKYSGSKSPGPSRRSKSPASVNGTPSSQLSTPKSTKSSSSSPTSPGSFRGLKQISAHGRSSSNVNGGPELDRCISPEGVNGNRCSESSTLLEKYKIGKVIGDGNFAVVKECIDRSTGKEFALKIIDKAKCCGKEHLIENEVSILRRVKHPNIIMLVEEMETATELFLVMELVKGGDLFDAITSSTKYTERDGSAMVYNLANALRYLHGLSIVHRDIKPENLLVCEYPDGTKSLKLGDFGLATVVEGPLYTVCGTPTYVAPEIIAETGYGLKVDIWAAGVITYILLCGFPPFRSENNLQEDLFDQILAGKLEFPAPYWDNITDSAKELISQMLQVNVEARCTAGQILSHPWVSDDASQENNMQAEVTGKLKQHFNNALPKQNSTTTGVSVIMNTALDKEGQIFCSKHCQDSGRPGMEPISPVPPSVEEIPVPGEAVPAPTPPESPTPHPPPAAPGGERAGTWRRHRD

Tyrosine-protein kinase BTK, sequence (Q06187 whole entry): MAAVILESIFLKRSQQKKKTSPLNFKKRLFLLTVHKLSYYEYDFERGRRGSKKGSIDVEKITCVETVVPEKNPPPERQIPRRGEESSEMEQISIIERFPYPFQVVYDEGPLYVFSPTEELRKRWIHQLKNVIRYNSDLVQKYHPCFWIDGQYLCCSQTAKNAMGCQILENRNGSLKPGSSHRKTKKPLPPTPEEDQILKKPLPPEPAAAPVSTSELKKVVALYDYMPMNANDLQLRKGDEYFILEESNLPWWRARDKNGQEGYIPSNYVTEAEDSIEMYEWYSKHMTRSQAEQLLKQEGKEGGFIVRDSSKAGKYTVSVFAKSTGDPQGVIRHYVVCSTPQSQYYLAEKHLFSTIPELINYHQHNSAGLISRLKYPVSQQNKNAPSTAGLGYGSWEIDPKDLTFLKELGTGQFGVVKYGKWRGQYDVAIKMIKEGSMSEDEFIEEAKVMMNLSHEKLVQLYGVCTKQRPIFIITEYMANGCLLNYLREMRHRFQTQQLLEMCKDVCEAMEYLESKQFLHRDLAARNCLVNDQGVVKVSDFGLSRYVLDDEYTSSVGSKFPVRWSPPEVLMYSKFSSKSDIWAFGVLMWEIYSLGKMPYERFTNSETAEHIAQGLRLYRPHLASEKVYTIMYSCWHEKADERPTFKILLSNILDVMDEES
Cyclin-dependent kinase 7, sequence (P50613 whole entry): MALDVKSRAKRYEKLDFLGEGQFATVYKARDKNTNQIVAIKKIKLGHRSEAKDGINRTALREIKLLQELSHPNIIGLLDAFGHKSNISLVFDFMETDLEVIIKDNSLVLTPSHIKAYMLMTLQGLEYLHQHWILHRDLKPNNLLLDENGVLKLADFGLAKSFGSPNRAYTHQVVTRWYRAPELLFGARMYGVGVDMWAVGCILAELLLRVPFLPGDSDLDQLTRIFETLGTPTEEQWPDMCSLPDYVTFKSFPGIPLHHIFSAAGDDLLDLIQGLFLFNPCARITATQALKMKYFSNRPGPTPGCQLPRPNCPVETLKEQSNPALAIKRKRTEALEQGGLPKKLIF
Mitogen-activated protein kinase kinase kinase kinase 4, sequence (O95819 2-1239 limits assumed): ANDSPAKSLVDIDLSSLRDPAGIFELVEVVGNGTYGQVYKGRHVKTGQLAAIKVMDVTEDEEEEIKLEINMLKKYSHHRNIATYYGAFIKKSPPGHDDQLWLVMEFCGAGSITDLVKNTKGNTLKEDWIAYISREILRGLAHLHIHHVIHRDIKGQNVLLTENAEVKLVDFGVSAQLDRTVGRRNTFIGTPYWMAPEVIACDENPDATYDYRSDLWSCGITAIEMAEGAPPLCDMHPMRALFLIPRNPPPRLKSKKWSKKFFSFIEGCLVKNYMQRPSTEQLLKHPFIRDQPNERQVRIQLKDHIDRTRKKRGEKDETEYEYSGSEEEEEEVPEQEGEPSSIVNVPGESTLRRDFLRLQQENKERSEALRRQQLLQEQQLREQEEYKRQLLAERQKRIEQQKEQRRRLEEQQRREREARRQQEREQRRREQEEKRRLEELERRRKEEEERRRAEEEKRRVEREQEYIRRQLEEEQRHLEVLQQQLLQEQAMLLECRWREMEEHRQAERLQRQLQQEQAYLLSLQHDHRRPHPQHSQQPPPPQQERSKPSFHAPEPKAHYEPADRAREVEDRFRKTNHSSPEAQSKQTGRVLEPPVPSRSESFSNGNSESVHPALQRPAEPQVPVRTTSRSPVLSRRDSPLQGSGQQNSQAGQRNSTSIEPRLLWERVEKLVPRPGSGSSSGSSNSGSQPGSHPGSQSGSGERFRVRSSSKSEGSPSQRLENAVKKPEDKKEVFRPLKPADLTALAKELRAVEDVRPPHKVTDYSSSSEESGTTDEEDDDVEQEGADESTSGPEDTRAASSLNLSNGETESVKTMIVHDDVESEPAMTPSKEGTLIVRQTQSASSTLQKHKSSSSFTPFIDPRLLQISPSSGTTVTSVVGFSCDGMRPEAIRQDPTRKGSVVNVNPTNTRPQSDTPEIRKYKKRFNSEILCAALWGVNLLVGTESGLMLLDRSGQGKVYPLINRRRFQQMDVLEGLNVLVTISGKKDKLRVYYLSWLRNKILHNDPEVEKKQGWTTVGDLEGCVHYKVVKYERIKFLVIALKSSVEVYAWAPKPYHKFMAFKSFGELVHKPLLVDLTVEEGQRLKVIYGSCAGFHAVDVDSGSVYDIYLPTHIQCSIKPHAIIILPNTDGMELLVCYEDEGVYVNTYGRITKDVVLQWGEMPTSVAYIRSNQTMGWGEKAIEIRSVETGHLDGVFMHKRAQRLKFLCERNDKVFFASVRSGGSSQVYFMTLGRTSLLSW
Casein kinase I isoform epsilon, sequence (P49674 whole entry, looked up, canonical isoform): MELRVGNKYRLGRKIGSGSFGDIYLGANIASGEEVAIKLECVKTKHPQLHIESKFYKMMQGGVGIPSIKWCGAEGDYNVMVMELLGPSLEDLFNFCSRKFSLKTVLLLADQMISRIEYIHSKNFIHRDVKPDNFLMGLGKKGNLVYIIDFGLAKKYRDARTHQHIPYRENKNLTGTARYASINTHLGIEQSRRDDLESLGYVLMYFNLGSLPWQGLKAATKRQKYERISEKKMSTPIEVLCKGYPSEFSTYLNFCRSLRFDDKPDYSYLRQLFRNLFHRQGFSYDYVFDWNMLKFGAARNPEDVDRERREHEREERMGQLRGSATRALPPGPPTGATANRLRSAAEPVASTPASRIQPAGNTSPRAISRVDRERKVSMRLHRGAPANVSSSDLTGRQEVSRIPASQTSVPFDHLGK
Cyclin-dependent kinase-like 3 (Homo sapiens), sequence (Q8IVW4 whole entry, looked up): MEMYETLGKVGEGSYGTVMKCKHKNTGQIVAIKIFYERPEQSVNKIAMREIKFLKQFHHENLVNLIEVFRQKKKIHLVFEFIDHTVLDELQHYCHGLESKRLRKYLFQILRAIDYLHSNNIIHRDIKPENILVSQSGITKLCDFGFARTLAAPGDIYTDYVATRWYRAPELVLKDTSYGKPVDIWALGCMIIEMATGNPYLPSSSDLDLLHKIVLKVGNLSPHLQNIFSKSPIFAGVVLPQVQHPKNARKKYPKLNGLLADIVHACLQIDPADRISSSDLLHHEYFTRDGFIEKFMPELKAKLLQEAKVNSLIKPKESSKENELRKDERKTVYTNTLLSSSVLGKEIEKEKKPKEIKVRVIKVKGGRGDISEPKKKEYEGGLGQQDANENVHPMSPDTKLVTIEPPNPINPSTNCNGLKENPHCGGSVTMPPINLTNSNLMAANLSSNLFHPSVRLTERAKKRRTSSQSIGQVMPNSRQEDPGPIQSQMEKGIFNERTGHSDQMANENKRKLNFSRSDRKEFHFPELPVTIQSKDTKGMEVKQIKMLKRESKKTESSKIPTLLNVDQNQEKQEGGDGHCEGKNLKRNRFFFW
Non-receptor tyrosine-protein kinase TYK2, sequence (P29597 whole entry): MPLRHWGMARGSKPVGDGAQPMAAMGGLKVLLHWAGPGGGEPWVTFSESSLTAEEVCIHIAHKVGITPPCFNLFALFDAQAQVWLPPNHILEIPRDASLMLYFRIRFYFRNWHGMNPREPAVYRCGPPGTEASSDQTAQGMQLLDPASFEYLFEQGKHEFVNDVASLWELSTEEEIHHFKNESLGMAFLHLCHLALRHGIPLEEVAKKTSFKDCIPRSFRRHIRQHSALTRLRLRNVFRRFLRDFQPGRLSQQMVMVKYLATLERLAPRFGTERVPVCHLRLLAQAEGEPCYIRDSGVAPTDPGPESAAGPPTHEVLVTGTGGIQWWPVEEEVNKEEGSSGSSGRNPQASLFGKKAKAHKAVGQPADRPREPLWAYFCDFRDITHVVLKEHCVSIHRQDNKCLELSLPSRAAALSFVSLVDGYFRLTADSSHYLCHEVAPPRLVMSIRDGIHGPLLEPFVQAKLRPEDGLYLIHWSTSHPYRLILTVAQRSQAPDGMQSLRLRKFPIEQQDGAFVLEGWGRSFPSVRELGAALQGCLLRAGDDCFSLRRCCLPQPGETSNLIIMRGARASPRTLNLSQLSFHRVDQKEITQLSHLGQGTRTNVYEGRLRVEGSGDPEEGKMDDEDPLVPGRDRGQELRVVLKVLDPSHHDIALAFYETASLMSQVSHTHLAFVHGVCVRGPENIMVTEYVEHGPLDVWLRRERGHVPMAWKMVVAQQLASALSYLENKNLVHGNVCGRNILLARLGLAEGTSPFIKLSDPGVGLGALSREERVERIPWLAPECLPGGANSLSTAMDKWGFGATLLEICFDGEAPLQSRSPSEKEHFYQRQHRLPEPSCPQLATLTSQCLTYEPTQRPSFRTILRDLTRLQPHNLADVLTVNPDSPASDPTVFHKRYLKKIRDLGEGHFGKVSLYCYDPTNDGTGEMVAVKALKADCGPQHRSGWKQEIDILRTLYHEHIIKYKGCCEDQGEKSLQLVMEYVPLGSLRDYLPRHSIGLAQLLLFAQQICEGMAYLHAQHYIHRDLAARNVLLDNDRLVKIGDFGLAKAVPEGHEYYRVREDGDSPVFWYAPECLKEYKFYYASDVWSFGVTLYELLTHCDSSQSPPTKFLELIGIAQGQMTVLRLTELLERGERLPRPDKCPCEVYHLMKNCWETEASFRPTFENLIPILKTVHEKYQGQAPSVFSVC
Calcium/calmodulin-dependent protein kinase type 1 (Homo sapiens), sequence (Q14012 whole entry, looked up): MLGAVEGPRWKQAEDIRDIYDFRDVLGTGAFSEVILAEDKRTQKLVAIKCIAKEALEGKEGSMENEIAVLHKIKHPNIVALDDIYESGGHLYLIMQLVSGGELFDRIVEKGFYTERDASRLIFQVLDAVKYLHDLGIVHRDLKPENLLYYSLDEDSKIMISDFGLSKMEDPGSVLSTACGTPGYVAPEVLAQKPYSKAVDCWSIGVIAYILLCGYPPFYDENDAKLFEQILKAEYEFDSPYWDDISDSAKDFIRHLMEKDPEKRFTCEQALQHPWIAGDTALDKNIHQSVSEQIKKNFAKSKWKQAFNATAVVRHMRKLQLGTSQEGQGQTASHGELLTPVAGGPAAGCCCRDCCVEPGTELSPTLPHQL

Structure (SMILES): CN(C)C/C=C/C(=O)Nc1ccc(C(=O)N2CCCC(Nc3ncc(Cl)c(-c4c[nH]c5ccccc45)n3)C2)cc1 (stereo not given)
% of control [2]: 93%

Structure (SMILES): CN(C)CCOc1ccc(-c2nc(-c3ccncc3)c(-c3ccc4c(c3)CC/C4=N\O)[nH]2)cc1
% of control [4]: 100%

Structure (SMILES): Nc1cnc(N2CCc3cc(S(=O)(=O)Nc4c(F)cc(Cl)cc4F)cc(N4CCCC4=O)c32)nc1 [TP-020n]
% of control [5]: 97%

Structure (SMILES): O[C@H]1CC[C@H](Nc2ncc3nc(Nc4c(F)cc(F)cc4F)n([C@H]4CCOC4)c3n2)CC1
% of control [6]: 100%

Structure (SMILES): C=CC(=O)Nc1cc(-n2c(=O)ccc3cnc4ccc(-c5ccc(NS(C)(=O)=O)cc5)cc4c32)ccc1C
% of control ([7]; at 1 µM): 100% | % of control ([7]; at 10 µM): 100% | % of control ([8]; at 1 µM): 79% | % of control ([8]; at 10 µM): 26%

Structure (SMILES): COCC(=O)NC/C=C/c1ccc2ncnc(Nc3ccc(Oc4ccc(C)nc4)c(C)c3)c2c1 [CP-724714]
% of control [9]: 87%

Structure (SMILES): Cn1cc(Nc2nccc(N3CC4CCC(C3)N4C(=O)[C@@H]3CC3(F)F)n2)cn1
% of inhibition [12]: 101%

Structure (SMILES): Cn1cc(-n2cnc3c(NCc4nc5cc(Cl)c(Cl)cc5[nH]4)nc(N4CCOCC4)nc32)cn1
% of control [13]: -1.8%

The remaining lines, values ahead:

% of control [1]: 100%
Structure (SMILES): CCN(CC)CCCCNc1ncc2cc(-c3cc(OC)cc(OC)c3)c(NC(=O)NC(C)(C)C)nc2n1

dTM [3]: 0.1 K
Structure (SMILES): CN(C(=O)c1cnn2cccnc12)c1cc2c(cc1N1CCOCC1)C(=O)N(C[C@@H](F)C(C)(C)O)C2

% of inhibition ([10]; at 0.01 µM): -9.7% | % of inhibition ([10]; at 0.04 µM): -8.8% | % of inhibition ([10]; at 0.2 µM): 2.6% | % of inhibition ([10]; at 1 µM): 11.9% | % of inhibition ([10]; at 5 µM): 0.7%
Structure (SMILES): CC[C@@H]1[C@H](F)C(=O)N[C@@H]1COc1nccc2cc(C(N)=O)c(OC)cc12 [ZIMLOVISERTIB]

% of control ([11]; at 1 µM): 79% | % of control ([11]; at 5 µM): 55%
Structure (SMILES): C=CC(=O)Nc1cccc(C(=O)Nc2ccc(Nc3cc(-c4[nH]c(SC)nc4C)ccn3)cc2)c1
